Assay results from patent US20040077580A1, “Antisense modulation of PI3K P85 Expression” (priority 2000, published 2004).
Strand notation (5' to 3'): a small letter for the sugar, then the base; units joined by * are phosphorothioate-linked, units joined directly phosphodiester-linked; [ ] holds rarer units or linkages, { } end groups; capitals alone tell only the bases. e = 2'-O-(2-methoxyethyl) (MOE); [5mC] = 5-methylcytosine; d = 2'-deoxy (DNA)

System: mouse PI3K p85
Experiment: Inhibition of mouse PI3K p85 mRNA levels by antisense oligonucleotides, real-time quantitative RT-PCR
Format: cell-based
Set-up: concentration or dose not given beside the values
Conditions: chimeric phosphorothioate 2′-MOE gapmers, averaged from two experiments
Procedure: Cells were harvested 16 hours after oligonucleotide treatment.
Target sites are indicated by nucleotide numbers, as given in the sequence source reference (Genbank accession no. U50413; SEQ ID NO: 48), to which the oligonucleotide binds.
Cytidine residues are 5-methylcytidines throughout the oligonucleotides.
Data were obtained by real-time quantitative RT-PCR as described in other examples herein and are averaged from two experiments. […] If present, “N.D.” indicates “no data”.

Substance | % Inhib. of mouse PI3K p85 mRNA levels
131416 (antisense eT*eG*e[5mC]*eT*eG*dG*dT*dG*d[5mC]*dT*dG*dG*d[5mC]*dT*dG*eT*e[5mC]*eT*e[5mC]*eT) [compound 131416] | 68%
131414 (antisense eT*e[5mC]*eG*eG*e[5mC]*dG*dA*dG*dA*dT*dA*dG*d[5mC]*dG*dT*eT*eT*eG*eA*eA) [compound 131414] | 73%
cgctccactctcagcttcac (e[5mC]*eG*e[5mC]*eT*e[5mC]*d[5mC]*dA*d[5mC]*dT*d[5mC]*dT*d[5mC]*dA*dG*d[5mC]*eT*eT*e[5mC]*eA*e[5mC]; antisense) [ISIS 131407] | at least 60%
131423 (antisense eT*eT*eT*eG*e[5mC]*dT*dT*d[5mC]*dT*d[5mC]*dA*dG*dA*dG*dG*e[5mC]*e[5mC]*eT*eT*eG) [compound 131423] | 40%
gcactcatgtctgcagctct (eG*e[5mC]*eA*e[5mC]*eT*d[5mC]*dA*dT*dG*dT*d[5mC]*dT*dG*d[5mC]*dA*eG*e[5mC]*eT*e[5mC]*eT; antisense) [ISIS 131409] | at least 60%
ggtgtaagagtgtaatcgcc (eG*eG*eT*eG*eT*dA*dA*dG*dA*dG*dT*dG*dT*dA*dA*eT*e[5mC]*eG*e[5mC]*e[5mC]; antisense) [ISIS 131417] | at least 60%
atactgaagcgtaagccaac (eA*eT*eA*e[5mC]*eT*dG*dA*dA*dG*d[5mC]*dG*dT*dA*dA*dG*e[5mC]*e[5mC]*eA*eA*e[5mC]; antisense) [ISIS 131415] | at least 60%
131411 (antisense e[5mC]*e[5mC]*eA*eG*eT*dG*dG*dT*dT*dT*d[5mC]*dA*dT*dT*dG*eT*eA*eG*e[5mC]*e[5mC]) [compound 131411] | 90%
tcggcgagatagcgtttgaa (eT*e[5mC]*eG*eG*e[5mC]*dG*dA*dG*dA*dT*dA*dG*d[5mC]*dG*dT*eT*eT*eG*eA*eA; antisense) [ISIS 131414] | at least 60%
cgatctctcggtactcagct (e[5mC]*eG*eA*eT*e[5mC]*dT*d[5mC]*dT*d[5mC]*dG*dG*dT*dA*d[5mC]*dT*e[5mC]*eA*eG*e[5mC]*eT; antisense) [ISIS 131420] | at least 60%
131413 (antisense eT*e[5mC]*eT*e[5mC]*e[5mC]*dA*dA*dG*dT*d[5mC]*d[5mC]*dA*d[5mC]*dT*dG*eA*e[5mC]*eG*e[5mC]*eG) [compound 131413] | 56%
131412 (antisense e[5mC]*eT*eT*eG*e[5mC]*dT*dG*d[5mC]*dT*d[5mC]*d[5mC]*dG*dT*dG*dT*e[5mC]*eA*eG*e[5mC]*eT) [compound 131412] | 85%
131417 (antisense eG*eG*eT*eG*eT*dA*dA*dG*dA*dG*dT*dG*dT*dA*dA*eT*e[5mC]*eG*e[5mC]*e[5mC]) [compound 131417] | 78%
gcatcaatgttctctcaaag (eG*e[5mC]*eA*eT*e[5mC]*dA*dA*dT*dG*dT*dT*d[5mC]*dT*d[5mC]*dT*e[5mC]*eA*eA*eA*eG; antisense) [ISIS 131426] | at least 60%
ccagtggtttcattgtagcc (e[5mC]*e[5mC]*eA*eG*eT*dG*dG*dT*dT*dT*d[5mC]*dA*dT*dT*dG*eT*eA*eG*e[5mC]*e[5mC]; antisense) [ISIS 131411] | at least 60%
131408 (antisense e[5mC]*e[5mC]*eA*eT*e[5mC]*dT*dG*dT*d[5mC]*d[5mC]*dT*d[5mC]*d[5mC]*dA*dT*e[5mC]*eA*eA*e[5mC]*eG) [compound 131408] | 88%
cttgctgctccgtgtcagct (e[5mC]*eT*eT*eG*e[5mC]*dT*dG*d[5mC]*dT*d[5mC]*d[5mC]*dG*dT*dG*dT*e[5mC]*eA*eG*e[5mC]*eT; antisense) [ISIS 131412] | at least 60%
